From patent US12268901B2, “Targeting cell tropism receptors to inhibit cytomegalovirus infection” (priority 2017, dated 2025)

Tests used:
[1] = tested on: HCMV infection of ARPE19 epithelial cells; experiment: Peptide blocking assay, infection of ARPE19 cells (percent GFP or IE positive cells); type: cell-based, Human cytomegalovirus (HCMV); conditions: peptide 1 100 μg/ml
Procedure: (§1) (A) Different amounts of peptide 1 were preincubated with TB40E-GFP virus and the mixture applied to ARPE19. Viral DNA levels were quantified by qPCR. (B) The results in (A) are presented as the relative amount of viral DNA relative to the DMSO control. (C) TB40E-GFP virus was preincubated with peptide 1 (100 μg/ml), or DMSO, followed by infection of ARPE19 cells (MOI=2.0). Cells were imaged for GFP expression at 2 dpi (D2) and 7 dpi (D7). (D) TB40E-GFP or BADrUL131-GFP virus, both expressing PC, were preincubated with peptide 1 (100 μg/ml), or DMSO prior to infection of ARPE19 cells (MOI=2.0). Cells were fixed and imaged for GFP at 2 dpi. All data represent the mean of n=3 experiments+/−SD. (E) Culture media supernatants from (C) were harvested on the indicated dpi and assayed for infectious virus by plaque assay. Values indicate the mean percent infected cells of 3 independent experiments±SD. ****p<0.0001.
FIG. 9. […] TB40E-GFP encoding the viral PC or AD169 lacking PC were preincubated with peptide 1 (100 μg/ml) and then infected on ARPE19 epithelial cells or HEL fibroblasts (MOI=2.0). Cells were fixed, permeabilized, stained for DNA, immunostained for anti-immediate early protein (IE) and imaged. […] Values indicate the mean percentage of infected cells of n=3 experiments±SD. **p<0.01; ***p<0.001.
FIG. 11. Each of the short peptides (aa sequences listed in Table 4; 150 uM), Peptide 1 (32.6 μM), or DMSO alone was preincubated with TB40E virus, followed by infection of ARPE19 cell lines (MOI=2.0). Cells were fixed and imaged for GFP and DNA at 2 dpi. Quantitation data indicating the percent GFP positive cells.
Live cell images: Phase and GFP signal images were captured on a Zeiss microscope (Zeiss AxioObserver Z1) at 10× magnification. Fixed cell images: cells were washed with PBS (Life Technologies) and fixed with 4% formalin in PBS (Sigma). DNA was stained with Hoechst 33342 dye (Life Technologies). The fixed cells were imaged using an Image Xpress Micro (IXM, Molecular Devices) at 4× magnification. Images were analyzed with MetaXpress imaging software (Molecular Devices) to determine the total cells per well and the percentage of infected cells (GFP positive) in each well. For IE immunostaining: fixed cells were permeabilized with 0.2% Triton X-100 (Sigma) in PBS. Blocking was performed with 1% BSA (Calbiochem, 2930) in PBS with 0.3M glycine (Sigma). Cells were then incubated in antibody targeting the major IE proteins (IE, EMD Millipore, MAB8131) diluted in 1% BSA in PBS. Cells were then incubated in secondary antibody (Texas Red-conjugated goat anti-mouse IgG2A, Southern Biotech, 1080-07) in PBS containing 1% BSA.
At 2 dpi with HCMV TB40E-GFP virus at the indicated MOI, ARPE19 cells were fixed with 4% formaldehyde and nuclei stained with Hoechst 33342. ARPE19 cells were imaged on an automated IXM scanning microscope. Numbers of infected cells were determined by calculating the percent GFP positive cells using MetaXpress software.
The noted synthetic peptides (100 ug/ml each or as described) were mixed with TB40E-GFP virus (1.2×10^6 PFU) and incubated at 37° C. for 2 h by rocking. The resulting samples were then subjected to the virus binding or infection assay.

[2] = tested on: HCMV TB40E-GFP replication in ARPE19 cells; experiment: Plaque assay of culture supernatants for infectious virus; type: cell-based, Human cytomegalovirus (HCMV); conditions: peptide 1 100 μg/ml, ARPE19, MOI=2.0, supernatants at indicated dpi
Procedure: as §1

[3] = tested on: Akt phosphorylation in ARPE19 cells; experiment: PI3/Akt signaling induced by virus binding (immunoblot phospho Akt ser473); type: cell-based; conditions: Peptide 1 100 ug/ml preincubated with virus at 37° C. for 2 h, ARPE19, 30 minutes post infection
Procedure: FIGS. 8A-C. […] (A) Cells were serum starved at 37° C. for overnight and cells were pretreated with DMSO (control), LY294002 (50 uM) in serum-free medium prior to infection for two hours. Plated cells were cooled on ice for 30 mins. Cells were infected by purified TB40E-GFP virus (no serum) at MOI of 2.0 PFU per cell for 2 hours on ice. Cell plates were then shifted to 37° C. incubator (time 0). Cells were harvested at 0, 5, 10 mins post infection. Protein extracts were subjected to immunoblotting with anti-phospho Akt (ser473), Akt or anti-β-actin (loading control). (B) ARPE19 epithelial sgCon and sgOR14I1 knock out cells were serum starved at 37° C. for overnight. Plated cells were cooled on ice for 30 mins. Cells were infected by purified TB40E-GFP virus (no serum) at MOI of 2.0 PFU per cell for 2 hours on ice. Cell plates were then shifted to 37° C. incubator (time 0). Cell were harvested at 0, 5 mins post infection. (C) Peptide 1 (100 ug/ml) was preincubated with TB40E-GFP virus at 37° C. for 2 h and the mixture applied to ARPE19 cells. The phosphorylation of Akt and total Akt were detected 30 minutes post infection of TB40E-GFP.
Cells were serum starved at 37° C. for overnight and cells were pretreated with DMSO (DMSO-carrier control) or LY294002 (50 uM) in serum-free medium prior to infection for two hours. Cell plates were cooled on ice for 30 mins. […]

Sequence: MDNLTKVTEFLLMEFSGIWELQVLHA (N-terminal fragment of OR14I1) [Peptide 1, synthetic peptide representing the N-terminus of OR14I1, position 1-26]
- anti-viral action versus presence of viral PC ([1]; TB40E-GFP encoding PC or AD169 lacking PC, MOI=2.0): dependent on the presence of the PC
- anti-viral action versus viral strain ([1]; TB40E-GFP or BADrUL131-GFP, MOI=2.0, 2 dpi): independent of viral strain
- HCMV infection of ARPE19 epithelial cells (percent IE positive cells) ([1]; TB40E-GFP, MOI=2.0): blocks HCMV infection of ARPE19 epithelial cells
- long-term replication of HCMV (infectious virus by plaque assay) [2]: compromised the long-term replication of HCMV
- Akt phosphorylation induced by HCMV infection [3]: abolished
